Data set [1] has as its system MRSA ATCC BAA-44. The experiment in a line: Biofilm inhibition assay (crystal violet). The data set is classed as cell-based, Staphylococcus aureus. The settings on record: for inhibition at 5 µM / IC50 / inhibition at 40 µM: Staphylococcus aureus; for IC50: MRSA ATCC BAA-44; for inhibition at 40 µM: Table 2; for fold reduction in biofilm inhibition activity: 7 versus 4, 8 versus 1. As for the experimental part:
(§1) General Information. Methicillin-resistant Staphylococcus aureus (MRSA) strains were obtained from the Laboratory of Professor Christian Melander (NCSU) ATCC (33591, BAA 44, BAA 1685, BAA 1770, BAA 43 300) and colonies were grown on solid media as instructed. Mueller-Hinton broth (MHB, 211443-BD), tryptic soy broth (TSB, Remel: R455052) and D-glucose (CAS: 492-62-6) were purchased from Fisher Scientific. Tryptic soy agar (TSA, cat. #22091) and Linezolid (cat. # P70014) were purchased from Sigma-Aldrich. Bacteria for biofilm inhibition and dispersion assays were cultured overnight in TSBG (tryptic soy broth with 0.5% glucose supplement). All assays were run in duplicate and repeated at least two separate times for MIC assays and at least four separate times for biofilm inhibition and dispersion assays. All compounds were dissolved molecular biology grade DMSO as 100 mM stock solutions and further diluted to 10 and 1 mM stock solutions as needed. Optical densities were measured using a Thermo Scientific Genesys 20 spectrophotometer. Data for biofilm inhibition and dispersion assays was collected using a BioTek ELx808 Microplate Reader. All graphs were generated and analyzed using GraphPad Prism 7.
Biofilm Inhibition Assay. Studies were performed using the standard method described in S. A. Rogers and C. Melander, Angew Chem Int Ed, 2008, 47, 5229-5231. Briefly, biofilm inhibition assays were performed by taking an overnight culture of bacterial strain and subculturing it at an OD600 of 0.01 into the necessary growth liquid medium (LB for A. baumannii, LBNS for P. aeruginosa, Stainer-Scholte medium that was supplemented with 10 μL/mL of 100× nutrient complex for B. bronchiseptica and TSB w/0.3% glucose for S. aureus) for the strain. The compound being tested was then added at a predetermined concentration and then aliquoted (100 μL) into the wells of a 96-well PVC microtiter plate (wells not used for samples are filled with 100 μL of de-ionized water). Plates were then wrapped in GLAD Press n' Seal and incubated under stationary conditions at 37° C. After 24 hours, the media was discarded from the wells and the plates were washed thoroughly with tap water. Plates were then stained with 100 μL of 0.1% solution of crystal violet (CV) and then incubated at an ambient temperature for 30 minutes. Sample plates were then washed with tap water again and the remaining stain was solubilized with 200 μL of 95% ethanol. Biofilm inhibition was quantitated by measuring the OD540 for each well by transferring 125 μL of the solubilized CV stain into a polystyrene microtiter dish for analysis. Biofilm inhibition was quantified by measuring the OD540 of each well and calculated as a percentage of the control (no compound); a negative control lane wherein no biofilm was formed served as a background and was subtracted out.
Percent inhibition was then plotted against concentration in Prism 7. Each of the four experiments were plotted separately and analyzed by a normalized nonlinear regression. The IC50 values reported represent an arithmetic mean of the four IC50 values. Biofilm data represent four separate experiments, with each experiment performed in duplicate (average of 8 data points for each concentration tested, unless otherwise noted)

Data set [2] relates to red blood cells. The experiment in a line: Lysis of red blood cells. The data set is classed as cell-based. The settings on record: 100 μM.
Data set [3] deals with MRSA ATCC BAA-44. The experiment in a line: Broth microdilution MIC determination. The data set is classed as cell-based, Staphylococcus aureus. The settings on record: for MIC: Staphylococcus aureus.
Data set [4] concerns MRSA ATCC BAA-44. Nature of the data set: Biofilm dispersion assay (crystal violet, pre-formed biofilm). The data set is classed as cell-based, Staphylococcus aureus. The settings on record: Staphylococcus aureus; for % dispersion of pre-formed biofilm at 5 µM: MRSA ATCC BAA 44; for IC50: MRSA ATCC BAA-44. As to the method: as §1
Biofilm Dispersion Assay. Studies were performed using the standard method described in J. J. Richards, T. E. Ballard and C. Melander, Org Biomol Chem, 2008, 6, 1356-1363. Briefly, dispersion assays were performed by taking an overnight culture of bacterial strain and subculturing it at an OD600 of 0.01 into the necessary growth liquid medium. The resulting bacterial suspension was aliquoted (100 μL) into the wells of a 96-well PVC microtiter plate. Plates were then wrapped in GLAD Press n' Seal followed by an incubation under stationary conditions at an ambient temperature. After 24 hours, the media was discarded from the wells and the plates were washed thoroughly with tap water. Predetermined concentrations of the test compound were then made in the same medium used to initially grow the biofilms and then aliquoted (100 μL) into the wells of the 96-well PVC microtiter plate with the established biofilms. Plates were then wrapped in GLAD Press n'Seal and incubated under stationary conditions at 37° C. After 24 hours, the media was discarded from the wells and the plates were washed thoroughly with tap water. Plates were then stained with 100 μL of 0.1% solution of crystal violet (CV) and then incubated at room temperature for 30 minutes. Plates were then washed with tap water again and the remaining stain was solubilized with 200 μL of 95% ethanol. Biofilm dispersion was quantitated by measuring the OD540 for each well by transferring 125 μL of the solubilized CV stain into a polystyrene microtiter dish for analysis. Biofilm inhibition was quantified by measuring the OD540 of each well and calculated as a percentage of the control (no compound), a negative control lane wherein no biofilm was formed served as a background and was subtracted out.
Percent dispersion was then plotted against concentration in Prism 7. Each of the four experiments were plotted separately and analyzed by a normalized nonlinear regression. The IC50 values reported represent an arithmetic mean of the four IC50 values. Biofilm data represent four separate experiments, with each experiment performed in duplicate (average of 8 data points for each concentration tested, unless otherwise noted)

The subject of data set [5] is MRSA ATCC BAA-44. The data set is described as above. The data set is classed as cell-based. The settings on record: Staphylococcus aureus, Table 2.
The test system of data set [6] is MRSA ATCC 33591. Nature of the data set: Broth microdilution MIC determination. The data set is classed as cell-based. The settings on record: Staphylococcus aureus, Table 1, read-out: Antimicrobial Activity MIC. As to the method: as §1
Broth microdilution protocol for minimum inhibition concentration (MIC) determination. Studies were performed using the standard method prescribed by the Clinical and Laboratory Standards Institute (CLSI) M07-A8, Vol. 29 (2), which is hereby incorporated herein by reference. Briefly, fresh Mueller-Hinton broth (MHB) ˜3 ml, was inoculated (5×10^5 CFU mL^−1) with MRSA (ATCC 33591) methicillin-resistant Staphylococcus aureus. The resulting bacterial suspension was aliquoted (1 mL) into culture tubes and test compound (10 mM DMSO stock solution) was added to reach the final concentration of the interest. Bacteria not treated with the antimicrobial compound served as the control. Rows 2-12 of a 96-well microtiter plate were filled with remaining bacterial subcultures. The samples containing test compound were aliquoted (200 μL) into the first row wells of the microtiter plate (2 wells per compound). Row 1 wells were mixed 6-8 times and 100 μL was transferred down to row 2. Row 2 wells were mixed 6-8 times, followed by a 100 μL transfer from row 2 down to row 3. The rest of the rows of the plate were serially diluted in similar fashion. The plate was covered with sealing tape for 96-well plates (ThermoFisher) and incubated under stationary conditions at 37° C. A duplicate of the plate was prepared.

The mark [7] stands for this setting: MRSA ATCC BAA 44, Table 2, read-out: MIC.
Setting [8] is: MRSA ATCC BAA-44, Table 1, read-out: Antimicrobial Activity MIC.

What is called inhibition is the change of the read-out against control, counted positive when it falls. For orientation: IC50 means the point on the concentration scale where inhibition reaches its midpoint. A high value points to lower potency. What is called MIC is the lowest concentration that inhibits growth of the organism.

≈ marks a conversion by molar mass, not a printed value. Read-outs that look alike come from different tables or passages of the source.

Consider `CCCCCCCCC(Cl)(Cl)C1NC(=O)/C(=C/c2ccc(C(F)(F)F)cc2)O1` (stereo not drawn) [Compound 3, (Z)-2-(1,1-dichlorononyl)-5-(4-(trifluoromethyl)benzylidene)oxazolidin-4-one], for which, in data set [1] (5 μM, MRSA ATCC BAA 44), the inhibition at 5 µM is 68%. Moreover, the IC50 in data set [1] turned out to be 1.7 µM; in data set [4] it was 6.6 µM. Further, the inhibition at 40 µM in data set [1] (MRSA ATCC BAA 44) was 75%; in data set [5], 19%. Besides, the “dose dependence of biofilm inhibition (in words)” value in data set [1] (relative to MIC) is on record as “dose-dependent biofilm inhibition at concentrations well below their MIC”. The “red blood cells lysed” value in data set [2] amounted to 7%. The “antimicrobial activity (in words)” value in data set [3] (MRSA ATCC BAA-44) is recorded as “completely abolished”. Besides, the MIC in data set [3] (setting [7]), in data set [3] (setting [8]) and in data set [6] was > 128 µg/mL in each case. In data set [4], the % dispersion of pre-formed biofilm at 5 µM came out at 19%.

As to `CC(Cl)(Cl)C1NC(=O)/C(=C/c2ccc(C(F)(F)F)cc2)O1` (stereo not drawn) [Compound 4, (Z)-2-(1,1-dichloroethyl)-5-(4-(trifluoromethyl)benzylidene)oxazolidin-4-one], in data set [1] (5 μM, MRSA ATCC BAA 44), the inhibition at 5 µM was determined as 55%. In addition, the values for the IC50 in data set [1] and in data set [4] were 3.6 µM and 5 µM, respectively. In addition, the MIC in data set [3] (setting [7]), in data set [3] (setting [8]) and in data set [6] was 32 µg/mL (≈ 94.1 µM) each time. In addition, in data set [4], the % dispersion of pre-formed biofilm at 5 µM is 50%.

For `C#CCC(Cl)(Cl)C1NC(=O)/C(=C/c2ccc(C(F)(F)F)cc2)O1` (stereo not drawn) [Compound 5, (Z)-2-(1,1-dichlorobut-3-yn-1-yl)-5-(4-(trifluoromethyl)benzylidene)oxazolidin-4-one], the inhibition at 5 µM in data set [1] (5 μM, MRSA ATCC BAA 44) was 64%. The half-inhibitory concentration (IC50) in data set [1] was determined as 1.9 µM; in data set [4], 6 µM. For the same compound, the MIC in data set [3] (setting [7]), in data set [3] (setting [8]) and in data set [6] was 16 µg/mL (≈ 43.9 µM) throughout. The % dispersion of pre-formed biofilm at 5 µM in data set [4] came out at 63%.

On to `CCCCC(Cl)(Cl)C1NC(=O)/C(=C/c2ccccc2)O1` (stereo not drawn) [Compound 6, (Z)-5-benzylidene-2-(1,1-dichloropentyl)oxazolidin-4-one], for which the inhibition at 5 µM in data set [1] (5 μM, MRSA ATCC BAA 44) is 51%. The IC50 in data set [1] was determined as 3.2 µM; in data set [4], 5.3 µM. In addition, the MIC in data set [3] (setting [7]), in data set [3] (setting [8]) and in data set [6] was 64 µg/mL (≈ 204 µM) throughout. In data set [4], the % dispersion of pre-formed biofilm at 5 µM is 14%. For the same compound, the inhibition at 40 µM in data set [5] was found to be 26%.

Regarding `CC(C)(C)C1NC(=O)/C(=C/c2ccc(C(F)(F)F)cc2)O1` (stereo not drawn) [Compound 7, (Z)-2-(tert-butyl)-5-(4-(trifluoromethyl)benzylidene)oxazolidin-4-one], the “fold reduction in biofilm inhibition activity” value in data set [1] is reported as 3 fold. For the same compound, the inhibition at 5 µM in data set [1] (5 μM, MRSA ATCC BAA 44) was determined as 31%. Moreover, the values for the IC50 in data set [1] and in data set [4] were 7.3 µM and 9.2 µM, respectively. Further, the inhibition at 40 µM in data set [1] (MRSA ATCC BAA 44) stood at 51%; in data set [5], 31%. Also, the “fold reduction in antimicrobial activity” value in data set [3] (7 compared with 4) came to 4 fold. Also, the minimum inhibitory concentration (MIC) in data set [3] (setting [7]), in data set [3] (setting [8]) and in data set [6] was 128 µg/mL (≈ 428 µM) in each case. Also, the % dispersion of pre-formed biofilm at 5 µM in data set [4] came to 5.7%.

Take `CCCCCC1NC(=O)/C(=C/c2ccc(C(F)(F)F)cc2)O1` (stereo not drawn) [Compound 8, (Z)-2-pentyl-5-(4-(trifluoromethyl)benzylidene)oxazolidin-4-one]: the “fold reduction in biofilm inhibition activity” value in data set [1] is recorded as 5 fold. For the same compound, the inhibition at 5 µM in data set [1] (5 μM, MRSA ATCC BAA 44) was 17%. The compound also gave an IC50 in data set [1] of 7.3 µM. Further, the inhibition at 40 µM in data set [1] (MRSA ATCC BAA 44) amounted to 53%. The MIC in data set [3] (setting [7]) worked out at 64 µg/mL (≈ 204 µM); in data set [3] (setting [8]), 16 µg/mL (≈ 51.1 µM); in data set [6] it was 16 µg/mL (≈ 51.1 µM).

On to `CCCCCCNC(=O)C(=O)Cc1ccc(C(F)(F)F)cc1` [Compound 9, N-hexyl-2-oxo-3-(4-(trifluoromethyl)phenyl)propanamide], for which the inhibition at 5 µM in data set [1] (5 μM, MRSA ATCC BAA 44) was 24%. In addition, the IC50 in data set [1] and in data set [4] was > 20 µM in each case. The inhibition at 40 µM in data set [1] (MRSA ATCC BAA 44) was 41%; in data set [5], -6.5%. Moreover, the “biofilm activity (in words)” value in data set [1] (even at 40 μM) was “only modest biofilm activity”. Moreover, the “antimicrobial activity (in words)” value in data set [3] (MRSA ATCC BAA-44) is “no antimicrobial activity”. Moreover, the MIC in data set [3] (setting [7]), in data set [3] (setting [8]) and in data set [6] was > 128 µg/mL throughout. Also, the % dispersion of pre-formed biofilm at 5 µM in data set [4] is -24%.

On to `CCCCC(Cl)(Cl)C1NC(=O)/C(=C/c2ccc(OC)cc2)O1` (stereo not drawn) [Compound 11, (Z)-2-(1,1-di-Chloropentyl)-5-(4-methoxybenzylidene)oxazolidin-4-one], for which, in data set [1] (5 μM, MRSA ATCC BAA 44), the “% Biofilm Inhibition (5 μM)” value was found to be 39% and the inhibition at 5 µM is < 50%. Moreover, the inhibition at 40 µM in data set [1] (MRSA ATCC BAA 44) was determined as 52%. Besides, the MIC in data set [3] (setting [7]) is > 128 µg/mL. Further, the % dispersion of pre-formed biofilm at 5 µM in data set [4] turned out to be 49%. The inhibition at 40 µM in data set [5] was found to be 58%.

(Values after patent publication US10822315B2, “5-benzylidene-4-oxazolidinones” (NORTH CAROLINA STATE UNIVERSITY, priority 2016, dated 2020).)
